Columns and labels:
[1] = test system: late watergrass; assay: Test D flooded paddy test; format: in vivo, Echinochloa oryzicola; settings: 21 days, scale 0 to 100
From the text: (§1) Three plastic pots (ca. 16-cm diameter) per rate were partially filled with sterilized Tama silt loam soil comprising a 35:50:15 ratio of sand, silt and clay and 2.6% organic matter. Separate plantings for each of the three pots were as follows. Seeds from the U.S. of ducksalad (Heteranthera limosa (Sw.) Willd.), smallflower umbrella sedge (Cyperus difformis L.) and purple redstem (Ammannia coccinea Rottb.), were planted into one 16-cm pot for each rate. Seeds from the U.S. of rice flatsedge (Cyperus iria L.), bearded sprangletop (Leptochloa fascicularis (Lam.) Gray), one stand of 9 or 10 water seeded rice seedlings (Oryza sativa L. cv. ‘Japonica—M202’), and one stand of 6 transplanted rice seedlings (Oryza sativa L. cv. ‘Japonica—M202’) were planted into one 16-cm pot for each rate. Seeds from the U.S. of barnyardgrass (Echinochloa crus-galli (L.) Beauv.), late watergrass (Echinochloa oryzicola Vasinger), early watergrass (Echinochloa oryzoides (Ard.) Fritsch) and junglerice (Echinochloa colona (L.) Link) were planted into one 16-cm pot for each rate. Plantings were sequential so that crop and weed species were at the 2.0 to 2.5-leaf stage at time of treatment.
(§2) Potted plants were grown in a greenhouse with day/night temperature settings of 29.5/26.7° C., and supplemental balanced lighting was provided to maintain a 16-hour photoperiod. Test pots were maintained in the greenhouse until test completion.
(§3) At time of treatment, test pots were flooded to 3 cm above the soil surface, treated by application of test compounds directly to the paddy water, and then maintained at that water depth for the duration of the test. Effects of treatments on rice and weeds were visually evaluated by comparison to untreated controls after 21 days. Plant response ratings are reported on a 0 to 100 scale; where 0 is no effect and 100 is complete control. A dash (-) response means no test result.

[2] = test system: purple redstem; assay: Test D flooded paddy test; format: in vivo, Ammannia coccinea; settings: 21 days, scale 0 to 100
From the text: as §1, §2, §3

[3] = test system: early watergrass; assay: Test D flooded paddy test; format: in vivo, Echinochloa oryzoides; settings: 21 days, scale 0 to 100
From the text: as §1, §2, §3

[4] = test system: wheat cv. Retical; assay: Test H safening on wheat by naphthalic anhydride seed treatment, pre-/postemergence; format: in vivo, Triticum aestivum; parameters: key to Response of wheat, Without naphthalic anhydride seed treatment: 0 = no effect, 100 = complete plant death, vs untreated control; settings: preemergence
Procedure: This test evaluated the safening of compounds of the invention on wheat (Triticum aestivumL.) cv. ‘Retical’ by seed treatment with naphthalic anhydride. Some of the wheat seed was treated with napthalic anhydride as a 1% by weight seed dressing. The wheat seed were planted in pots containing pasteurized Sassafras sandy loam soil. For postemergence testing the plants were grown 8 days to the 2-leaf stage at time of treatment. Preemergence treatments were applied the same day that the seeds were planted. Treatments were applied by spraying the test compounds formulated in a non-phytotoxic solvent mixture, using a flat fan nozzle and a spray volume of 280 L/ha. The preemergence treatments were triply replicated and the results subsequently averaged. The pots were placed on a growth chamber bench using a complete randomized block design for the preemergence test except for the first replicate, which was unrandomized. The plants were grown in the growth chamber and watered as needed with a dilute nutrient solution containing 200 ppm of N. Illumination was provided by fluorescent lamps giving 200-300 μE/m^2/S of photosynthetically active radiation over a 14-hour photoperiod. The temperature was maintained at 23±2° C. during the day and 17±2° C. at night. The effects of the treatments were rated 25 days after preemergence treatment and 14 days after postemergence treatment. The plant response was visually rated in comparison to untreated controls using a scale of 0 to 100, with 0 representing no effect and 100 representing complete plant death. The results for the compounds tested preemergence are listed in Table H1, and the results for the compounds tested postemergence are listed in Table H2.

[5] = test system: hairy beggarticks; assay: Test E pre-/postemergence herbicide test; format: in vivo, Bidens radiata; settings: Preemergence
From the text: Seeds of plant species selected from bipinnate beggarticks (Bidens bipinnata L.), hairy beggarticks (Bidens radiata Thuill.), bermudagrass (Cynodon dactylon (L.) Pers.), Surinam grass (Urochloa decumbens (Staph) R. D. Webster, previously named Brachiaria decumbens Stapf), large crabgrass (Digitaria sanguinalis (L.) Scop.), green foxtail (Setaria viridis (L.) P. Beauv.), goosegrass (Eleusine indica (L.) Gaertn.), johnsongrass (Sorghum halepense (L.) Pers.), kochia (Kochia scoparia (L.) Schrad.), pitted morningglory (Ipomoea lacunosa L.), purple nutsedge (Cyperus rotundus L.), common ragweed (Ambrosia elatior L.), mustard (Brassica nigra (L.) W. D. J. Koch), guineagrass (Panicum maximum Jacq.), dallisgrass (Paspalum dilatatum Poir.), barnyardgrass (Echinochloa crus-galli (L). P. Beauv.), southern sandbur (Cenchrus echinatus L.), common sowthistle (Sonchus oleraceous L.), prickly sida (Sida spinosa L.), Italian ryegrass (Lolium multiflorum Lam.), common purslane (Portulaca oleracea L.), broadleaf signalgrass (Brachiaria platyphylla (Griseb.) Nash), common groundsel (Senecio vulgaris L.), common chickweed (Stellaria media (L.) Vill/Cyr.), tropical spiderwort (Commelina benghalensis L.), annual bluegrass (Poa annua L.), downy bromegrass (Bromus tectorum L.), itchgrass (Rottboellia cochinchinensis (L.) L.f.), quackgrass (Elytrigia repens (L.) Nevski), Canada horseweed (Erigeron Canadensis L.), field bindweed (Convolvulus arvensis L.), spotted spurge (Euphorbia maculata L.), common mallow (Malva sylvestris (=s silvestris) L.), and Russian thistle (Salsola kali L. ssp. Ruthenica (Iljin) Soo) were planted and treated preemergence with test chemicals formulated in a non-phytotoxic solvent mixture which included a surfactant.
At the same time, plants selected from these weed species were treated with postemergence applications of some of the test chemicals formulated in the same manner. Plants ranged in height from 2 to 18 cm (1- to 4-leaf stage) for postemergence treatments. Treated plants and controls were maintained in a greenhouse for 12 to 14 days, after which time all species were compared to controls and visually evaluated. Plant response ratings, summarized in Table E, are based on a scale of 0 to 100 where 0 is no effect and 100 is complete control. A dash (-) response means no test result.

CCn1nc(C(C)(C)C)cc1C(=O)Nc1cc(C(=O)NCC2CC2)ccn1 [Compound 155]
Plant response rating, Watergrass, Late ([1]; 32 g ai/ha): 0 | Plant response rating, Watergrass, Late ([1]; 64 g ai/ha): 0 | Plant response rating, Watergrass, Late ([1]; 125 g ai/ha): 20 | Plant response rating, Watergrass, Late ([1]; 250 g ai/ha): 30 | Plant response rating, Watergrass, Late ([1]; 500 g ai/ha): 60 | Plant response rating, Redstem ([2]; 32 g ai/ha): 0 | Plant response rating, Redstem ([2]; 64 g ai/ha): 0 | Plant response rating, Redstem ([2]; 125 g ai/ha): 0 | Plant response rating, Redstem ([2]; 250 g ai/ha): 95 | Plant response rating, Redstem ([2]; 500 g ai/ha): 95 | Plant response rating, Watergrass, Early ([3]; 32 g ai/ha): 0 | Plant response rating, Watergrass, Early ([3]; 64 g ai/ha): 0 | Plant response rating, Watergrass, Early ([3]; 125 g ai/ha): 25 | Plant response rating, Watergrass, Early ([3]; 250 g ai/ha): 35 | Plant response rating, Watergrass, Early ([3]; 500 g ai/ha): 70

CCn1nc(C(C)(C)C)cc1C(=O)Nc1cc(C(=O)N(C)C)ccn1 [Compound 156, 2-[[[3-(1,1-dimethylethyl)-1-ethyl-1H-pyrazol-5-yl]carbonyl]amino]-N,N-dimethyl-4-pyridinecarboxamide]
Response of wheat, With 1% naphthalic anhydride seed treatment ([4]; 62 g a.i./ha): 7 | Response of wheat, Without naphthalic anhydride seed treatment ([4]; 62 g a.i./ha): 67 | Response of wheat, With 1% naphthalic anhydride seed treatment ([4]; 125 g a.i./ha): 70 | Response of wheat, Without naphthalic anhydride seed treatment ([4]; 125 g a.i./ha): 100 | Response of wheat, With 1% naphthalic anhydride seed treatment ([4]; 250 g a.i./ha): 85 | Response of wheat, Without naphthalic anhydride seed treatment ([4]; 250 g a.i./ha): 100 | Response of wheat, With 1% naphthalic anhydride seed treatment ([4]; 500 g a.i./ha): 99 | Response of wheat, Without naphthalic anhydride seed treatment ([4]; 500 g a.i./ha): 100

CCN1N=C(C(C)(C)C)CC1C(=O)Nc1cc(C(=O)N(C)C)ccc1F (stereo not drawn) [Compound 268, N-[5-[(dimethylamino)carbonyl]-2-fluorophenyl]-3-(1,1-dimethylethyl)-1-ethyl-4,5-dihydro-1H-pyrazole-5-carboxamide]
Plant response rating, Beggarticks, Hairy ([5]; 62 g ai/ha, scale 0 to 100): 40 | Plant response rating, Beggarticks, Hairy ([5]; 125 g ai/ha, scale 0 to 100): 95 | Plant response rating, Beggarticks, Hairy ([5]; 250 g ai/ha, scale 0 (no effect) to 100 (complete control)): 100 | Plant response rating, Beggarticks, Hairy ([5]; 500 g ai/ha, scale 0 (no effect) to 100 (complete control)): 100

— patent publication US20060069132A1, “Azolecarboxamide herbicides” (priority 2004, published 2006)
